Measurements reported in patent publication US4886806A, “Flavone-3-carboxylic acids compounds and pharmaceutical compositions containing them” (Kali-Chemie Pharma GmbH, priority 1987, dated 1989).

How the values were obtained:
Assay type in all cases: cell-based
[1] = system: oxygen radical-forming activity of activated peritoneal exudate cells (PEC) of mice; assay: Peak chemiluminescence (CL) test: inhibition of oxygen radical liberation from activated peritoneal exudate cells; settings: Mus musculus, 10^-4 Mol substance/l, added at peak of cell activity, read-out: Inhibition in vitro of the oxygen radical liberation, Chemiluminescence Test % inhibition, Pk. CL
Method: 1. To determine the inhibiting effect on the oxygen radical-forming activity of inflamed cells, the in vitro inhibition of the release of oxygen radicals from activated peritoneal exudate cells (=PEC) of mice was determined in the chemiluminescence (CL) test according to the method of Mueller-Peddinghaus (Int. J. Immunopharmac. 6, 455-466 (1984)). […] The intensity of the chemiluminescence is a measurement of the oxygen radical content in the suspension and thus the degree of activity of the inflamed cells. In this, three functionally different parameters are detected, the spontaneous CL, the induced CL and the peak CL. The spontaneous CL and the induced CL on the one hand and the peak CL on the other hand differ from each other because in the first two parameters the test substances are in contact with the cells for a 30 minute preincubation period before the inflammation irritant is added, whereas with the peak CL the cells are first stimulated, and the test substance is added at the peak of their activity. The measurement of the spontaneous CL thus detects the influence of the test substance on the relative rest activity of inflamed cells, the induced CL represents the effect of the test substances on the activatability of the cells and the inhibition of the peak CL indicates the effect of the test substances on the maximum activity of the inflamed cells. 1.1 Production of PEC suspension used in the test. In order to induce the PEC formation, female mice of 20-25 g body weight were each injected i.p. with 2 ml of a 3% solution of thioglycollate in sterile isotonic sodium chloride solution. Twenty four hours after the thioglycollate injection the cells, which predominantly consisted of polymorphonuclear leucocytes, were recovered by washing out of the abdominal cavity and washed twice. As cell culture medium there was added a commercially available solution under the designation RPMI 1640 (pH 7.2) (produced by Flow Laboratories, […], Germany), which contains 10% fetal calf serum (FCS, produced by Seromed GmbH, Munich, Germany) 18 μmol/l sodium bicarbonate and 2 μmol/l L-glutamine. The cell pellets of four animals each time were resuspended in cell culture medium, collected together and the suspension was made up to 2×10^6 cells per ml with cell culture medium. The cell suspensions were kept under ice cooling until their use the same day. 1.2 Production of the complement opsonized zymosan (=ZyC3 b) suspension used for activation. 200 mg zymosan (glycoprotein mixture isolated from the cell walls of brewer's yeast, Sacchomyces […], produced by Sigma Chemical Co., Munich, Germany) were suspended in 10 ml phosphate buffer solution according to Dulbecco (produced by Flow Laboratories, […], Germany), well stirred and heated for thirty minutes in a water bath to 100° C. After cooling, it was centrifuged for five minutes at 4° C. and at 600 ×g and the supernatant was discarded. The sediment was resuspended in 50 ml human serum and incubated for thirty minutes at 37° C. in a shaking water bath. Then it was centrifuged for five minutes at 600 ×g and 420 C., the supernatant decanted and the sediment washed with phosphate buffer solution. The working suspension of 8×10^-3 g ZyC3 b/ml was produced from the sediment by dilution with phosphate buffer solution (Mueller-Peddinghaus et al., Zbl. Vet. Med. B. 30, 559-575). 1.3 Chemiluminescence (CL) measurement (Peak-CL). The PEC suspension was divided into samples of 100 μl each, placed in test tubes, and these were incubated for ten minutes at a temperature of 3720 C. in a measurement device (Chemiluminescence analyzer, Laboratorium Prof. Berthold, Wildbad, Germany). Then in order to amplify the chemiluminescence, 100 μl lucigenin solution was added (final concentration 1.54×10^-4 mol/l) and incubated for 16 more minutes. The cells were then activated by the addition of 100 μl of the ZyC3 b suspension produced as described in section 1.2 plus 100 μl phosphate buffer solution. […]

[2] = system: oxygen radical-forming activity of peritoneal exudate cells (PEC) of mice; assay: Spontaneous CL and induced CL chemiluminescence test: inhibition of oxygen radical liberation from peritoneal exudate cells (30 min preincubation); design: concentration or dose not given beside the values; settings: for Inhibition in vitro of the oxygen radical liberation, Chemiluminescence Test % inhibition, Ind. CL: induced CL, after ZyC3b activation; for Inhibition in vitro of the oxygen radical liberation, Chemiluminescence Test % inhibition, Spnt. CL: spontaneous CL, before ZyC3b
Method: 1. To determine the inhibiting effect on the oxygen radical-forming activity of inflamed cells, the in vitro inhibition of the release of oxygen radicals from activated peritoneal exudate cells (=PEC) of mice was determined in the chemiluminescence (CL) test according to the method of Mueller-Peddinghaus (Int. J. Immunopharmac. 6, 455-466 (1984)). […] The intensity of the chemiluminescence is a measurement of the oxygen radical content in the suspension and thus the degree of activity of the inflamed cells. In this, three functionally different parameters are detected, the spontaneous CL, the induced CL and the peak CL. The spontaneous CL and the induced CL on the one hand and the peak CL on the other hand differ from each other because in the first two parameters the test substances are in contact with the cells for a 30 minute preincubation period before the inflammation irritant is added, whereas with the peak CL the cells are first stimulated, and the test substance is added at the peak of their activity. The measurement of the spontaneous CL thus detects the influence of the test substance on the relative rest activity of inflamed cells, the induced CL represents the effect of the test substances on the activatability of the cells and the inhibition of the peak CL indicates the effect of the test substances on the maximum activity of the inflamed cells. 1.1 Production of PEC suspension used in the test. In order to induce the PEC formation, female mice of 20-25 g body weight were each injected i.p. with 2 ml of a 3% solution of thioglycollate in sterile isotonic sodium chloride solution. Twenty four hours after the thioglycollate injection the cells, which predominantly consisted of polymorphonuclear leucocytes, were recovered by washing out of the abdominal cavity and washed twice. As cell culture medium there was added a commercially available solution under the designation RPMI 1640 (pH 7.2) (produced by Flow Laboratories, […], Germany), which contains 10% fetal calf serum (FCS, produced by Seromed GmbH, Munich, Germany) 18 μmol/l sodium bicarbonate and 2 μmol/l L-glutamine. The cell pellets of four animals each time were resuspended in cell culture medium, collected together and the suspension was made up to 2×10^6 cells per ml with cell culture medium. The cell suspensions were kept under ice cooling until their use the same day. 1.2 Production of the complement opsonized zymosan (=ZyC3 b) suspension used for activation. 200 mg zymosan (glycoprotein mixture isolated from the cell walls of brewer's yeast, Sacchomyces […], produced by Sigma Chemical Co., Munich, Germany) were suspended in 10 ml phosphate buffer solution according to Dulbecco (produced by Flow Laboratories, […], Germany), well stirred and heated for thirty minutes in a water bath to 100° C. After cooling, it was centrifuged for five minutes at 4° C. and at 600 ×g and the supernatant was discarded. The sediment was resuspended in 50 ml human serum and incubated for thirty minutes at 37° C. in a shaking water bath. Then it was centrifuged for five minutes at 600 ×g and 420 C., the supernatant decanted and the sediment washed with phosphate buffer solution. The working suspension of 8×10^-3 g ZyC3 b/ml was produced from the sediment by dilution with phosphate buffer solution (Mueller-Peddinghaus et al., Zbl. Vet. Med. B. 30, 559-575). 1.3 Chemiluminescence (CL) measurement (Peak-CL). […] At the end of this preincubation phase, 100 μl lucigenin were added, and in the course of the subsequent sixteen minute incubation phase the spontaneous CL parameter was determined with two measuring points. Then 100 μl ZyC3 b+100 μl phosphate buffer were added, and during the course of the subsequent twenty-four minute cell activation the induced CL parameter was measured with three measuring points. All measurements were determined twice. The parameters spontaneous CL and induced CL were determined on the same day with two separate cell pools.

Lipoxygenase = assay: LTB4 synthesis and inhibition test (lipoxygenase inhibition in vitro) in polymorphonuclear leucocytes; settings: Homo sapiens, PMNL, 10^-4 Mol/l, Ca-ionophore A 23187, arachidonic acid, read-out: Lipoxygenase inhib. in vitro, % inhibition of the LTB4 synthesis at 10^-4 Mol/l
Method: 2. In order to investigate the lipoxygenase-inhibiting properties, the inhibiting effect of the substances on the biosynthesis of leucotriene B4 (=LTB4) from arachidonic acid by activated inflamed cells was determined in vitro. Leucotriene B4, a dihydroxy fatty acid which plays an important role not only in the inflammation but also in allergic reactions was oxidatively formed, starting from arachidonic acid, by oxidation through the action of the enzyme lipoxygenase.
LTB4 Synthesis and Inhibition Test.
The combined extracts were evaporated under vacuum to dryness and the residue was taken up in 0.5 ml 30% aqueous methanol and was analyzed with the aid of high pressure liquid chromatography with phase reversal (=reversed phase-HPLC). The stationary phase (=separating medium) consisted of silica gel containing octadecyl groups chemically bound thereto (=RSIL C18 HP; produced by Autech, Darfield, Ill.). The solvent mixture is methanol:water:acetic acid (67:33:0.1; v/v/v), which had been adjusted to a pH value of 6.2 with NH3 /H2 O. The flow velocity was 1 ml/min. […] The LTB4 signals were compared with those of the control (cell incubation with solvent) and reported as percent inhibition of LTB4 synthesis compared with the controls.

SMILES	inhibition at 100 µM (stock) [1] [%]	Inhibition in vitro of the oxygen radical liberation, Chemiluminescence Test % inhibition, Ind. CL [2] [%]	Inhibition in vitro of the oxygen radical liberation, Chemiluminescence Test % inhibition, Spnt. CL [2] [%]	inhibition at 100 µM (Lipoxygenase) [%]
O=C(NCCCC[N+]1([O-])CC[N+]([O-])(c2cccc[n+]2[O-])CC1)c1c(-c2ccccc2)oc2ccccc2c1=O (stereo not shown) [Example 26]	10	3	13	43
O=C(c1c(-c2ccc(O)c(O)c2)oc2ccccc2c1=O)N1CCN(c2ccccn2)CC1 [Example 29]	75	74	65	97
O=C(c1c(-c2ccccc2Cl)oc2ccccc2c1=O)N1CCN(c2ccccn2)CC1 [Example 35]	–	–	–	100
CC(=O)Oc1cc(-c2oc3ccccc3c(=O)c2C(=O)N2CCN(Cc3ccccc3)CC2)cc(OC(C)=O)c1OC(C)=O [Example 42b]	99	100	99	100
